Values joined by “and” are separate entries in the source; they are usually repeats but may differ in a detail not shown here. Equal values may be shown once. Read-outs that look alike come from different tables or passages of the source.
Legend:
[1] = biological target: T1, SdiA (Salmonella enterica subsp. enterica serovar Typhimurium, UniProt O66040); set-up: method as in PMID 17085703; settings: racemates; cited from earlier work
[2] = biological target: T1, SdiA; assay: S. Typhimurium-pJNS25 SdiA reporter, agonism (luminescence); assay type: cell-based; settings: for Emax: read-out: activation (%)
Text: Biological assays for SdiA activity. Cell-based reporter strains that rely on detecting the transcriptional activity of LuxR-type receptors are commonly used to assess the activity of exogenous ligands. We used the S. Typhimurium-pJNS25 reporter strain constructed by Smith and Ahmer and also used by Janssens et al. to examine SdiA activity. This strain naturally produces SdiA and contains a reporter plasmid with the promoter region for srgE fused to the luxABCDE operon of V. fischeri (see Experimental section for details of all strains and plasmids). SdiA activity is thus reported by the production of luciferase and resulting bioluminescence. We also prepared an SdiA reporter in E. coli (JLD271-pJN105SE-pSC11SE) to examine S. Typhimurium SdiA activity in an alternate background and with a different reporter gene output. […] This reporter construct uses an arabinose inducible promoter to produce S. Typhimurium SdiA and the promoter region for srgE fused to lacZ to report SdiA activity. SdiA activity is then measured using standard β-galactosidase assays. In both reporter strains, signal was normalized to the difference between the positive control (10 μM OOHL) and the negative control (1% DMSO; no compound).
Salmonella SdiA reporter assay. S. Typhimurium-pJNS25 was grown 16–18 h overnight in LB, diluted 1:100 in fresh LB medium, and then incubated for 6 h at 37 °C with shaking at 200 rpm in the presence of compounds (1% DMSO). […] All compounds were screened at 100 μM and 1 μM in triplicate in agonism and antagonism assays. […] Dose–response analyses were performed by preparing dilutions of compounds in DMSO and testing each concentration in the agonism or antagonism assays. Competition dose–response assays (data in Figure 5) were performed in the same manner as the antagonism assays, except instead of OOHL being added to the subculture, the antagonist being tested was added. Non-linear regression curve fits were generated using GraphPad Prism software (version 6) using variable slope (four parameter) dose–response analysis.

[3] = biological target: T1, SdiA; assay: Competition dose–response of OOHL (2) against antagonists in the S. Typhimurium SdiA reporter; assay type: cell-based; settings: for inhibition profile in competition assay (in words): against OOHL (2)
Procedure: We also submitted compounds 11, R8, and F45 to competition-type assays in the S. Typhimurium SdiA reporter to further characterize their activity profiles. […] The results are shown in Figure 5 (EC50 and maximal activity values listed in Supporting Information File 3).
(§1) Salmonella SdiA reporter assay. S. Typhimurium-pJNS25 was grown 16–18 h overnight in LB, diluted 1:100 in fresh LB medium, and then incubated for 6 h at 37 °C with shaking at 200 rpm in the presence of compounds (1% DMSO). For antagonism assays, OOHL (2) at its EC90 (10 nM, 0.1% DMSO) was added to the subculture immediately prior to adding the compound for testing. All compounds were screened at 100 μM and 1 μM in triplicate in agonism and antagonism assays. Raw luminescence values were divided by the OD600 and then normalized to the controls; negative (DMSO) and positive (10 μM OOHL) control samples were included in every assay plate and used to normalize assay results, setting the positive control to 100% and the negative control to 0%. Luminescence was measured using a Biotek Synergy 2 plate reader and Gen 5 software (version 1.05). Dose–response analyses were performed by preparing dilutions of compounds in DMSO and testing each concentration in the agonism or antagonism assays. Competition dose–response assays (data in Figure 5) were performed in the same manner as the antagonism assays, except instead of OOHL being added to the subculture, the antagonist being tested was added. Non-linear regression curve fits were generated using GraphPad Prism software (version 6) using variable slope (four parameter) dose–response analysis.

[4] = biological target: T2, S. Typhimurium SdiA (Salmonella enterica subsp. enterica serovar Typhimurium, UniProt O66040); assay: E. coli JLD271-pJN105SE-pSC11SE SdiA reporter, antagonism (β-galactosidase); assay type: cell-based; settings: for inhibition (%): E. coli reporter, against OOHL at its EC50 (1.5 nM), NA = not active
Text: (§2) Biological assays for SdiA activity. Cell-based reporter strains that rely on detecting the transcriptional activity of LuxR-type receptors are commonly used to assess the activity of exogenous ligands. We used the S. Typhimurium-pJNS25 reporter strain constructed by Smith and Ahmer and also used by Janssens et al. to examine SdiA activity. This strain naturally produces SdiA and contains a reporter plasmid with the promoter region for srgE fused to the luxABCDE operon of V. fischeri (see Experimental section for details of all strains and plasmids). SdiA activity is thus reported by the production of luciferase and resulting bioluminescence. We also prepared an SdiA reporter in E. coli (JLD271-pJN105SE-pSC11SE) to examine S. Typhimurium SdiA activity in an alternate background and with a different reporter gene output. E. coli JLD271 is the sdiA mutant of K-12 E. coli. This reporter construct uses an arabinose inducible promoter to produce S. Typhimurium SdiA and the promoter region for srgE fused to lacZ to report SdiA activity. SdiA activity is then measured using standard β-galactosidase assays. In both reporter strains, signal was normalized to the difference between the positive control (10 μM OOHL) and the negative control (1% DMSO; no compound).
E. coli SdiA reporter assay. The β-galactosidase assay using the E. coli SdiA reporter was performed as reported previously, with minor modifications. The reporter strain was grown 16–18 h overnight in LB, diluted 1:10 in fresh LB medium, and incubated at 37 °C with shaking at 200 rpm until it reached an OD600 of 0.25. Expression of SdiA was induced by the addition of 4 mg/mL arabinose, and the culture was incubated in the presence of compounds (1% DMSO) for 4 h at 37 °C with shaking at 200 rpm. […] A 50 μL aliquot of culture from each well was lysed in 200 μL of Z-buffer and 8 μL of chloroform, and a 100 μL aliquot of this lysate was incubated with 25 μL of 4 mg/mL ONPG for 20 min at 30 °C before reading absorption at 420 nm and 550 nm using a Biotek Synergy 2 plate reader. Non-linear regression curve fits were generated using GraphPad Prism software (version 6) using variable slope (four parameter) dose–response analysis.

[5] = biological target: T1, SdiA; assay: S. Typhimurium-pJNS25 SdiA reporter, competitive antagonism against 10 nM L-OOHL; assay type: cell-based; settings: for inhibition at 1 µM: read-out: Antagonism 1 μM Inhibition (%); for inhibition at 100 µM: 100 μM compound, read-out: Antagonism 100 μM Inhibition (%); for Emax: maximal inhibition, 100% minus lowest % activity in presence of 10 nM L-OOHL (2), read-out: inhibition (%)
Method in brief: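 S. Typhimurium-pJNS25 (native SdiA, srgE promoter–luxCDABE) subcultured 1:100 in LB and incubated 6 h at 37 °C, 200 rpm, with compound (1% DMSO); antagonism run against 10 nM L-OOHL. Luminescence normalised between 10 μM OOHL and 1% DMSO controls; triplicates; four-parameter dose–response fits.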

[6] = biological target: T2, S. Typhimurium SdiA; assay: E. coli JLD271-pJN105SE-pSC11SE SdiA reporter, agonism; assay type: cell-based
Text: as §2, with “This reporter construct uses an arabinose inducible promoter to produce S. Typhimurium SdiA and the promoter region for srgE fused to lacZ to report SdiA activity.” left out, “In both reporter strains, signal was normalized to the difference between the positive control (10 μM OOHL) and the negative control (1% DMSO; no compound).” left out
E. coli SdiA reporter assay. […] A 50 μL aliquot of culture from each well was lysed in 200 μL of Z-buffer and 8 μL of chloroform, and a 100 μL aliquot of this lysate was incubated with 25 μL of 4 mg/mL ONPG for 20 min at 30 °C before reading absorption at 420 nm and 550 nm using a Biotek Synergy 2 plate reader. […]

[7] = test system: S. Typhimurium-pJNS25; assay type: cell-based; settings: 100 μM compound; footnote f: Cell growth inhibited at this compound concentration
Procedure: as §1

[8] = maximal activation of the antagonists (partial agonism), Table 3
[9] = 1 μM compound, average ± STD, change in activity from 10 nM 2 (OOHL)
[10] = average ± STD, change in activity from 10 nM 2 (OOHL)

T1 sequence (O66040 entry or part of it): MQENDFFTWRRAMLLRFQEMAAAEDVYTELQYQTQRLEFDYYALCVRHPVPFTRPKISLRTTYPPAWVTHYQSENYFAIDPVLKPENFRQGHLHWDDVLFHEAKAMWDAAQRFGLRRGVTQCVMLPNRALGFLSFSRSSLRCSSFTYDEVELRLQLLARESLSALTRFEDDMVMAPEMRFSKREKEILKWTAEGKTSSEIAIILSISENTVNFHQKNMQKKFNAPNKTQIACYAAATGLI
T2 sequence (O66040 entry or part of it): as above

For `CCCCCCCC(=O)NC1CCOC1=O` (racemic) [DL-OHL (C8)], the EC50 [1] is listed as 7 nM.
For `CCCCCC(=O)CC(=O)NC1CCOC1=O` (racemic) [DL-OOHL, N-(3-oxooctanoyl) DL-homoserine lactone], the EC50 [1] is listed as 3 nM.
In the case of `CCOC(=O)CNC(=O)Cc1cccc(I)c1` [F45], the Emax [2, 8] is reported as 26%, the “inhibition profile in competition assay (in words)” value (from here on “inhibition profile”) [3] is reported as “non-competitive inhibition profile” and the EC50 ([3]; antagonist at 0.1 μM) is reported as 1.77 nM. The EC50 ([3]; antagonist at 1 μM) was 1.33 nM, the EC50 ([3]; antagonist at 10 μM) was 4.11 nM and the “inhibition (%)” value [4] was “failed to display antagonistic activity”. It also gave an inhibition at 1 µM [5, 9] of 8 ± 10%, an inhibition at 100 µM [5, 10] of 92 ± 2% and an IC50 ([5]; against 10 nM L-OOHL (EC90)) of 28500 nM. The Emax [5] was 87%.
In the case of `CCCCCC(=O)CC(=O)N[C@H]1CCOC1=O` [compound 2, reference compound], the EC90 ([2]; S. Typhimurium reporter) is reported as 10 nM, the EC50 ([2]; agonism dose–response, read-out: EC50) is reported as 1.03 nM and the Emax ([2]; maximal activity (efficacy) from agonism dose–response, 10 μM OOHL = 100%, DMSO = 0%) is reported as 110%. For the same compound, the EC50 ([3]; no antagonist (0)) was 1.03 nM, the EC50 [6] was 1.5 nM and the inhibition at 1 µM [5, 9] was -2 ± 9%. The inhibition at 100 µM [5, 10] was 9 ± 5%.
In the case of `CCCC(=O)CC(=O)NC1CCOC1=O` (racemic) [DL-OHHL (3-oxo-C6)], the EC50 [1] is given as 5 nM.
With `CCCCCCCCCCCOc1ccc(C(=O)N[C@H]2CCOC2=O)cc1` [R8] the Emax [2, 8] was 24%, the “inhibition profile” value [3] was “competitive SdiA inhibition” and the EC50 ([3]; antagonist at 0.1 μM) was 1.57 nM. The EC50 ([3]; antagonist at 1 μM) was 1.51 nM, the EC50 ([3]; antagonist at 10 μM) was 2.52 nM and the EC50 ([3]; antagonist at 100 μM) was 10.6 nM. For the same compound, the inhibition at 0.0015 µM [4] was 106%, the “inhibition (%)” value [4] was “fully inhibit SdiA activity” and the inhibition at 1 µM [5, 9] was 18 ± 5%. The inhibition at 100 µM [5, 10] was 67 ± 5%, the IC50 ([5]; against 10 nM L-OOHL (EC90)) was 44000 nM and 44200 nM and the Emax [5] was over 100%.
In the case of `CCCCCCCCCC(=O)NC1CCOC1=O` (racemic) [DL-DHL (C10)], the EC50 [1] is given as 1000 nM.
In the case of `O=C(CCCCCCCCCN=C=S)CC(=O)N[C@H]1CCOC1=O` [compound 11, reference compound], the Emax [2, 8] is reported as -33%, the “inhibition profile” value [3] is reported as “both competitive and non-competitive inhibition” and the EC50 ([3]; antagonist at 0.1 μM) is reported as 72.3 nM. It also gave an EC50 ([3]; antagonist at 1 μM) of 220 nM, an EC50 ([3]; antagonist at 10 μM) of 1310 nM and an EC50 ([3]; antagonist at 100 μM) of 4670 nM. The IC50 [4] was 380 nM, the inhibition at 0.0015 µM [4] was 130% and the “inhibition (%)” value [4] was “fully inhibit SdiA activity”. The inhibition at 1 µM [5, 9] was 64 ± 6%, the inhibition at 100 µM [5, 10] was 128 ± 1% and the IC50 ([5]; against 10 nM L-OOHL) was 318 nM. The IC50 ([5]; against 10 nM L-OOHL (EC90)) was 320 nM.
For `O=C1C=C(Br)C(=CBr)O1` [compound 21, reference compound], the cell growth [7] was “--f” and the “Antagonism 1 μM Inhibition (%)” value [5, 9] was 29 ± 13%.
For `CCCCCC(=O)CC(=O)NC1CCSC1=O` (racemic) [DL-3-oxo-C8 thiolactone], the EC50 [1] is given as 1 nM.

Source: article PMC6204753, “Non-native autoinducer analogs capable of modulating the SdiA quorum sensing receptor in Salmonella enterica serovar Typhimurium” (Beilstein Journal of Organic Chemistry, 2018)
